Test results as given in US11918645B2, “Vaccines against hepatitis B virus” (priority 2012, dated 2024).
“Also recorded” adds a separate entry of the source.

What was measured:
[1] = test system: PBMC from chronic HBV-infected subjects; test: IFNγ ELISpot of PBMC restimulated with individual unconjugated HBV long peptides (Example 5); assay type: cell-based, human; conditions: for T cell responses (IFNγ ELISpot), level and frequency of responders: HBeAg-negative inactive carriers and HBeAg-negative treated subjects, 5 μg/mL, 18 h, FIGS. 9 and 10; for T cell responses (IFNγ ELISpot) grouped by infecting HBV genotype: genotypes A, B, C & D, FIG. 11; for T cell responses (IFNγ ELISpot) grouped by ethnic background: three ethnic groups, FIG. 12
Protocol: One vial of PBMC from each subject (containing 1×10^7 cells) was thawed and lymphocyte numbers were determined using a Scepter™ automated handheld cell counter. PBMC were cultured in 2 mL culture medium (CM: RPMI-1640 Glutamax supplemented with 5% human AB serum) in 24 well cell culture plates at a concentration of 1×10^6 cells/mL for a total of 11 days. Cells were stimulated with a mixture of the nine HBV-derived long peptides described in Example 3.
Each peptide was used at a final concentration of 1 μg/peptide/mL. On Day 4, IL-2 and IL-15 were added to the cultures to final concentrations of 10 IU/mL and 10 ng/mL respectively. On Day 10, cells were washed twice in CM and cultured with 10 IU/mL IL-2 for 1 additional day. On Day 11, cells were washed twice in CM, counted and incorporated in a human IFNγ (interferon-gamma) ELISpot assay or intracellular cytokine staining.
Cells from short term cultures were plated in triplicate wells at 5×10^4 PBMC/well. Final antigen concentrations used were: 5 μg/mL for each individual peptides; PHA positive control: 1 μg/mL.

BALB/c mice = test: Immunogenicity in mice, IFNγ ELISpot of splenocytes, FP02.1 vs NP02.1 (Example 6); assay type: in vivo; conditions: mice immunised with FP02.1 or NP02.1, restimulation 5 μg/mL/peptide, FIG. 15
Protocol: The immunogenicity in mice of FP02.1 (containing nine fluorocarbon-conjugated peptides) was compared to NP02.1 (containing nine equivalent unconjugated peptides).
Alternatively, splenocytes were stimulated in vitro with 5 μg/mL/peptide of nine individual peptides for 18 hours in an ELISpot assay. The number of IFNγ+ spot forming cells (SFC) was counted. Plates then were washed with PBS, incubated with an IFNγ detection peroxidase-labelled antibody, followed by a substrate, according to the manufacturer's instructions.

[2] = test system: HLA-DR11 (α1*01:01;β1*11:01); test: ProImmune REVEAL MHC class II binding assay of long peptides; design: species or system human; conditions: percentage of the signal of the positive control peptide; positive binding score >=15%
Text: The highly frequent HLA class II alleles HLA-DR1 (α1*01:01;β1*01:01), HLA-DR15 (α1*01:01;β1*15:01), HLA-DR3 (α1*01:01;β1*03:01), HLA-DR4 (α1*01:01;β1*04:01), HLA-DR11 (α1*01:01;β1*11:01), HLA-DR13 (α1*01:01;β1*13:01), and HLA-DR7 (α1*01:01;β1*07:01) were selected. Each peptide was given a score relative to the positive control peptide, which is a known T-cell epitope.

HLA class II alleles = test: ProImmune REVEAL MHC class II binding assay, summary over the seven alleles; design: species or system human; conditions: number of class II alleles for which positive binding (score >=15%) was detected
Text: The highly frequent HLA class II alleles HLA-DR1 (α1*01:01;β1*01:01), HLA-DR15 (α1*01:01;β1*15:01), HLA-DR3 (α1*01:01;β1*03:01), HLA-DR4 (α1*01:01;β1*04:01), HLA-DR11 (α1*01:01;β1*11:01), HLA-DR13 (α1*01:01;β1*13:01), and HLA-DR7 (α1*01:01;β1*07:01) were selected. Each peptide was given a score relative to the positive control peptide, which is a known T-cell epitope. The score of the test peptide is reported quantitatively as a percentage of the signal generated by the positive control peptide, and the peptide is indicated as having a putative pass or fail result. Good binders are considered to be those peptides with scores >=15% of the positive control as defined by Proimmune.

Substance | T cell responses (IFNγ ELISpot), level and frequency of responders [1] | T cell responses (IFNγ ELISpot) grouped by infecting HBV genotype [1] | T cell responses (IFNγ ELISpot) grouped by ethnic background [1] | IFNγ response of splenocytes to each individual peptide component (BALB/c mice) | IFNγ response of splenocytes to each individual peptide component (BALB/c mice; listed as P113) | binding score, HLA-DR11 (α1*01:01;β1*11:01) [2] [%] | Number of allele (a) (HLA class II alleles)
NP113: unconjugated HBV long peptide, polymerase region 96-130 of virtual HBV proteome (VGPLTVNEKRRLKLIMPARFYPNVTKYLPLDKGIK; HBV CONSENSUS SEQUENCE) | highest level of responses in both patient populations and in the highest proportion of subjects | highest responses across all four genotypes A, B, C & D; also recorded: highest T cell response across all four genotypes compared to all other peptides | highest responses across all three ethnic groups | immune responses were dominated by four out of the 9 peptides contained in the vaccine | only observed with the formulation containing the fluorocarbon-conjugated peptides | – | –
NP151: unconjugated HBV long peptide, polymerase region 134-168 (PEHVVNHYFQTRHYLHTLWKAGILYKRETTRSASF; HBV CONSENSUS SEQUENCE) | highest level of responses in both patient populations and in the highest proportion of subjects | highest responses across all four genotypes A, B, C & D | highest responses across all three ethnic groups | immune responses were dominated by four out of the 9 peptides contained in the vaccine | – | – | –
NP753(K): unconjugated HBV long peptide, core KK + 738-770 (S to T at 743) + KKK (KKKEFGATVELLSFLPSDFFPSVRDLLDTASALYRKKK; HBV CONSENSUS SEQUENCE) | highest level of responses in both patient populations and in the highest proportion of subjects | highest responses across all four genotypes A, B, C & D | highest responses across all three ethnic groups | – | – | 1.51 | 0
